Assay type in all cases: cell-based
The subject of one experiment is 12R5-3. Put plainly: Cell growth inhibition assay (Cell Titer Glo, 3 days). The following applies: Homo sapiens; 12R5-3, melanoma, Compound A resistant clone; BRAF_V600E, KRAS WT; mean ± std; read-out: IC50 Single Agent. As for the experimental part:
(§1) Human colon tumor lines, Colo205, DLD1, HCC2998, HCT15, HCT8, HT29, KM-12, LS1034, LS174T, NCI-H508, RKO, SW1417, SW1463, SW480, SW837 and T84, and human melanoma line A375 were from ATCC. A375PF11 was derived from A375, 12R5-1, 12R5-3, 12R8-1, 12R8-3, 16R5-2, 16R6-3 and 16R6-4 are single cell clones derived from mixed populations of A375PF11 cells that were selected to grow in Compound A to concentrations of 1200 and 1600 nM. All lines were cultured in RPMI 1640 medium containing 10% fetal bovine serum (FBS).
(§2) All cells were cultured for a minimum of 72 hours prior to cell plating. Cells were assayed in a 96-well tissue culture plate (NUNC 136102) of RPMI medium containing 10% FBS for all cells at 1,000 cells per well. Approximately 24 hours after plating, cells were exposed to ten, three-fold serial dilutions of compound or the combination of the two agents at a constant molar to molar ratio of 1:10 Compound A to Compound B in RPMI media containing 10% FBS. Cells were incubated in the presence of compounds for 3 days. ATP levels were determined by adding Cell Titer Glo® (Promega) according to the manufacturer's protocol. Briefly, Cell Titer Glo® was added each plate, incubated for 30 minutes then luminescent signal was read on the SpectraMax L plate reader with a 0.5 sec integration time.
(§3) Inhibition of cell growth was estimated after treatment with compound or combination of compounds for three days and comparing the signal to cells treated with vehicle (DMSO). Cell growth was calculated relative to vehicle (DMSO) treated control wells. […]

In another experiment the test system is 12R8-3. The experiment is described as above. The following applies: Homo sapiens; 12R8-3, melanoma, Compound A resistant clone; BRAF_V600E, KRAS WT; mean ± std; read-out: IC50 Single Agent. As to the method: as §1, §2, §3
Another experiment has as its system 16R6-3. The experiment is described as above. The following applies: Homo sapiens; 16R6-3, melanoma, Compound A resistant clone; BRAF_V600E, KRAS WT; mean ± std; read-out: IC50 Single Agent. As to the method: as §1, §2, §3
The next experiment relates to 16R6-4. The description is as above. The conditions noted are these: Homo sapiens; 16R6-4, melanoma, Compound A resistant clone; BRAF_V600E, KRAS WT; mean ± std; read-out: IC50 Single Agent. As to the method:
as §1, §2, §3

For another experiment, the system named is A375PF11. Described as above. The conditions noted are these: Homo sapiens, A375P-F11, melanoma, BRAF_V600E, KRAS WT, mean ± std, read-out: IC50 Single Agent. As to the method:
as §1, §2, §3

In a further experiment the test system is Colo205. The description is as above. The following applies: Homo sapiens, COLO 205; Colo205, colon; BRAF V600E, KRAS WT, PIK3CA WT; mean ± std; read-out: IC50 Single Agent. As to the method: as §1, §2, §3
The test system of another experiment is DLD1. The description is as above. The following applies: Homo sapiens, DLD-1; DLD1, colon; BRAF WT, KRAS G13D, PIK3CA E545K, D549N; mean ± std; read-out: IC50 Single Agent. As to the method: as §1, §2, §3
The next experiment relates to HCT15. The experiment is described as above. The conditions noted are these: Homo sapiens, HCT-15; HCT15, colon; BRAF WT, KRAS G13D, PIK3CA D549N, E545K; mean ± std; read-out: IC50 Single Agent. As for the experimental part:
as §1, §2, §3

A further experiment concerns HCT8. The description is as above. The following applies: Homo sapiens, HCT-8; HCT8, colon; BRAF WT, KRAS G13D, PIK3CA E545K; mean ± std; read-out: IC50 Single Agent. As to the method: as §1, §2, §3
The test system of a further experiment is LS1034. The experiment is described as above. The following applies: Homo sapiens, LS-1034; LS1034, colon; BRAF WT, KRAS A146T, PIK3CA WT; mean ± std; read-out: IC50 Single Agent. As to the method:
as §1, §2, §3

For the next experiment, the system named is RKO. Described as above. The following applies: Homo sapiens, colon, BRAF V600E, KRAS WT, PIK3CA H1047R, mean ± std, read-out: IC50 Single Agent. As to the method: as §1, §2, §3
Another experiment concerns SW837. The experiment is described as above. The following applies: Homo sapiens; SW837, colon; BRAF WT, KRAS G12C, PIK3CA WT; mean ± std; read-out: IC50 Single Agent. As to the method:
as §1, §2, §3

The test system of a further experiment is T84. The experiment is described as above. The following applies: Homo sapiens; T84, colon; BRAF WT, KRAS G13D, PIK3CA E542K; mean ± std; read-out: IC50 Single Agent. As to the method: as §1, §2, §3
Experiment [1] deals with 12 colon lines without BRAF V600E mutation. Put plainly: Cell growth inhibition assay (Cell Titer Glo, 3 days), summary over lines. The following applies: Homo sapiens; the other 12 colon lines without BRAF V600E mutation; single agent. As for the experimental part: Human colon tumor lines, Colo205, DLD1, HCC2998, HCT15, HCT8, HT29, KM-12, LS1034, LS174T, NCI-H508, RKO, SW1417, SW1463, SW480, SW837 and T84, and human melanoma line A375 were from ATCC.
All cells were cultured for a minimum of 72 hours prior to cell plating. […] Cells were incubated in the presence of compounds for 3 days. ATP levels were determined by adding Cell Titer Glo® (Promega) according to the manufacturer's protocol. Briefly, Cell Titer Glo® was added each plate, incubated for 30 minutes then luminescent signal was read on the SpectraMax L plate reader with a 0.5 sec integration time.
Inhibition of cell growth was estimated after treatment with compound or combination of compounds for three days and comparing the signal to cells treated with vehicle (DMSO). Cell growth was calculated relative to vehicle (DMSO) treated control wells.
Combination effects on potency were evaluated using Combination Index (CI) which was calculated with the back-interpolated IC50 values and the mutually non-exclusive equation derived by Chou and Talalay (1): CI=Da/IC50(a)+Db/IC50(b)+(Da×Db)/(IC50(a)×IC50(b))
In general, a CI value <0.9, between 0.9 and 1.1, or >1.1 indicates synergy, additivity and antagonism, respectively. In general, the smaller the CI number, the greater is the strength of synergy.
EOHSA values are defined as increases in improvement (here, in ‘percentage points’ (ppts) difference) produced by the combination over the best single agent at its component dose level for the combination. For single agent and combination treatments, cells were exposed to compounds at a fixed-dose-ratio, and dose response curves were fit to the experimental data and analyzed using regression models. At specified total dose levels of IC50 along the dose response curve, the dose combination (corresponding to IC50) was determined for making EOHSA statistical inferences.

On to `CC(C)(C)c1nc(-c2cccc(NS(=O)(=O)c3c(F)cccc3F)c2F)c(-c2ccnc(N)n2)s1` [Compound A, N-{3-[5-(2-Amino-4-pyrimidinyl)-2-(1,1-dimethylethyl)-1,3-thiazol-4-yl]-2-fluorophenyl}-2,6-difluorobenzenesulfonamide], for which the IC50 in the experiment with 12R5-3 is more than 10 µM; with 12R8-3 it was more than 10 µM; with 16R6-3 it was more than 10 µM; with 16R6-4, more than 10 µM; with A375PF11 it was 0.063 µM; in the experiment with Colo205 it was 0.018 ± 0.003 µM. Further, the IC50 was more than 10 µM in the experiment on DLD1; more than 10 µM with HCT15; more than 10 µM in the experiment with HCT8; more than 10 µM in the experiment on LS1034; 3.14 ± 3.47 µM in the experiment with RKO; 5.44 ± 7.69 µM in the experiment on SW837. The IC50 with T84 is more than 10 µM; in experiment [1], more than 5 µM.
In the case of `Cn1ncc(Cl)c1-c1cc(C(=O)N[C@H](CN)Cc2ccc(F)c(F)c2)oc1Cl` [Compound B, N-{(1S)-2-amino-1-[(3,4-difluorophenyl)methyl]ethyl}-5-chloro-4-(4-chloro-1-methyl-1H-pyrazol-5-yl)-2-furancarboxamide], the 50% inhibitory concentration (IC50) with 12R5-3 is more than 10 µM; with 12R8-3, more than 10 µM; with 16R6-3, more than 10 µM; in the experiment with 16R6-4, more than 10 µM; with A375PF11, more than 10 µM; in the experiment with Colo205, 0.908 ± 0.605 µM. The concentration for half-maximal inhibition (IC50) with DLD1 is more than 10 µM; with HCT15, 4.21 ± 0.834 µM; in the experiment with HCT8 it was 0.527 ± 0.036 µM; with LS1034 it was 6.39 ± 3.55 µM; in the experiment with RKO it was 0.29 ± 0.07 µM; with SW837, more than 10 µM. In addition, in the experiment with T84, the IC50 was more than 10 µM.
